Results on two compounds are retold here after US20190133968A1, “Applications of benzophenones in preparation of drug” (SHANXI MEDICAL UNIVERSITY, priority 2016, published 2019).

The structures appear in SMILES notation.

In this assay the test system is Escherichia coli ATCC25922 standard strain. The experiment in a line: urinary and renal bacterial culture of acute pyelonephritis rats. The following applies: gavage, 10 days; for Renal bacterial culture score: mean score, scale 1-4 of Table 10 (colony number <10, >10, >100, >1000); for Urinary bacterial A value (OD600 nm): urine culture. It is filed as in vivo, SD rats. The protocol:
Ninety male SD rats having a weight of 180-220 g are selected, wherein: ten rats are selected as a sham-operated group (only being processed with ligation, without injecting with Escherichia coli), and the remaining rats are injected with Escherichia coli ATCC25922 standard strain having a concentration of 10^8/ml according to the method (disclosed in the Chinese Journal of Laboratory Animal Science, 1998, 8(1): pages 31-34) for preparing the acute pyelonephritis model rats.
After three days, urine of the rats is collected for bacterial culture, and the growth situation of the bacteria is observed. If the result is positive, the model rats are successively established; the unqualified rats are excluded, and the operation is made again for complementing the rats. The successively established model rats are randomly divided into the model group, the norfloxacin group (66.7 mg/kg), the LM49 solid dispersion low-dose group (with the drug concentration of 3 mg/kg), the LM49 solid dispersion medium-dose group (with the drug concentration of 9 mg/kg), the LM49 solid dispersion high-dose group (with the drug concentration of 27 mg/kg), the A8 solid dispersion low-dose group (with the drug concentration of 3 mg/kg), the A8 solid dispersion medium-dose group (with the drug concentration of 9 mg/kg), and the A8 solid dispersion high-dose group (with the drug concentration of 27 mg/kg).
The rats of the sham-operated group and the model group are administrated with the normal saline of same volume by gavage, and the rats of the other groups are respectively administrated with the drugs of the corresponding dose, once a day for consecutive ten days.
After finishing administration, urine of the rats of all groups is collected (for observing the bacterial growth situation). The abdominal aorta blood of the rats is drawn (for measuring the blood routine, CD4/CD8, urine creatinine and serum creatinine in the serum; and for measuring contents of IL-1α, IL-1β, IL-6, IL-10 and MCP-1 in the serum with the ELISA method). Two kidneys of each rat are cut (wherein a part is homogenated for bacterial culture, and the other part is used for observing the pathomorphology change).

With `O=C(c1cc(OC(=O)N2CCOCC2)c(OC(=O)N2CCOCC2)cc1Cl)c1cc(Cl)ccc1OC(=O)N1CCOCC1` [A8, 4,5,2′-tris(4-morpholinemethanoyl)-2,5′-dichlorobenzophenone], the “Renal bacterial culture score” value reads like this: (high-dose 27 mg/kg) 1.5 ± 0.33^ΔΔ; (low-dose 3 mg/kg) 3.6 ± 0.57^; (medium-dose 9 mg/kg) 2.6 ± 0.23^Δ. The “Urinary bacterial A value (OD600 nm)” value runs as follows: (high-dose 27 mg/kg) 0.274 ± 0.113^ΔΔ; (low-dose 3 mg/kg) 0.332 ± 0.131^; (medium-dose 9 mg/kg) 0.304 ± 0.125^Δ.
On to `O=C(c1cc(Br)ccc1O)c1cc(O)c(O)cc1Br` [LM49, 2,5′-dibromo-4,5,2′-trihydroxyldiphenylmethanone], for which the “Renal bacterial culture score” value by setting is: (high-dose 27 mg/kg) 1.9 ± 0.57^ΔΔ; (low-dose 3 mg/kg) 3.9 ± 0.32^; (medium-dose 9 mg/kg) 3.4 ± 0.52^Δ. Also, the “Urinary bacterial A value (OD600 nm)” value is recorded as 0.304 ± 0.109^Δ (high-dose 27 mg/kg), 0.353 ± 0.128^ (low-dose 3 mg/kg) and 0.331 ± 0.100^Δ (medium-dose 9 mg/kg).
